# “Also recorded” adds a separate entry of the source.
# Experiments:
# [1] = Re-analysis of SOLVD treatment trial: cardiac cachexia and survival; type: in vivo, human
# Text: The SOLVD treatment study (57) was a randomized, double-blind, and placebo-controlled trial investigating the effects of enaiapril treatment in clinically stable patients with a LVEF of 35% or less and evidence of overt congestive heart failure. The precis e details of study organisation, inclusion criteria, run-in period (2 to 7 days) and stabilization period (14 to 17 days), randomisation, treatment titration and follow-up have been reported previously (57). Based also on data not otherwise available, the results have been re-analysed, restricted to subjects who participated in the SOLVD treatment trial, who had been free of edema at baseline, who had survived for at least 4 months thereafter, who had weight measurements at baseline and from at least one follow-up visit at 4 months or later.
# Of the 2082 patients, 1055 patients were randomised to treatment with enalapril (2.5 to 20 mg per pay) and 1027 patients to treatment with placebo. Body weight at baseline and during follow-up were measured per protocol. Body height was not recorded.
# Comparison of means between groups was carried out using an unpaired t-test. Comparison of proportions between groups was made by employing the chi-square test. […] To address the question of whether or not ACE inhibitors influence the risk of first occunence of cachexia, the cumulative incidence of cachexia in the two treatment groups was plotted, and analysed employing the log-rank statistic (59). In the analysis of first occunence of cardiac cachexia, at any given follow-up visit, absence of information on cardiac cachexia (i.e. weight not documented at this visit) is treated as censored. The effect of cardiac cachexia on survival is assessed using Cox proportional hazard analysis (58). For these analyses, cardiac cachexia is treated as a time-dependent covariate. The assessment of cardiac cachexia at 4, 8, and 12 months was used in the analysis. These are the time points in the follow-up period with relatively high proportion of complete information on cachexia status.
# The primary analysis was intention-to-treat. Statistical significance is claimed at a computed p-value <0.05 (two-sided testing). Estimates of effects are provided along with their 95% confidence intervals. Results are adjusted for a priori identified prognostic factors such as age, gender, NYHA functional class, LVEF (up to or more than 25%), and treatment status (enalapril vs placebo, in the case of assessing the effect of cardiac cachexia on survival).
# rat cardiomyocytes [2] = experiment: Mitochondrial membrane potential (ΔΨm) by Rh123 flow cytometry; type: cell-based; conditions: 1 μM, pre-treatment for 36 hours
# Text: (§1) It is based on observation of the potential difference (ΔΨm) across the inner mitochondrial membrane that is generated by the extrusion of protons to the outside of the mitochondrion during the transport of electrons from electron-carrying coenzymes to molecular oxygen. Part of the energy stored in ΔΨm is utilised to support the synthesis of most of the ATP derived from aerobic metabolism. Thus, ΔΨm is an indicator of the energisation state of the mitochondrion, and also of the efficiency of oxygen utilisation to generate chemical energy. To investigate whether some of the therapeutic properties of ACE inhibitors could be accounted for by an increase in ΔΨm, this parameter was examined in rat cardiomyocytes, following pre-treatment with the ACE inhibitor lisinopril.
# More particularly, cardiomyocytes were isolated from new-born Sprague-Dawley rats hearts and maintained in 30 mm tissue culture dishes in the presence of DMEM supplemented with 1% foetal calf serum at 37° C. in a humidified 5% CO2 atmosphere. […]
# To measure ΔΨm, the mitochondrial-specific probes rhodamine 123 (Rh123) and 5,5′,6,6′-tetrachloro-1,1′,3,3′-tetraethylbenzimidazolocarbocyanine iodide (JC-1) were used. […] Data were acquired and analysed using Lysis II software (Becton Dickinson).
# rat cardiomyocytes [3] = experiment: Mitochondrial membrane potential (ΔΨm) by JC-1 flow cytometry; type: cell-based; conditions: 1 μM
# Text: as §1
# More particularly, cardiomyocytes were isolated from new-born Sprague-Dawley rats hearts and maintained in 30 mm tissue culture dishes in the presence of DMEM supplemented with 1% foetal calf serum at 37° C. in a humidified 5% CO2 atmosphere. For experiments, cultures were treated with 1 μM lisinopril or with an equivalent amount of vehicle for various lengths of time, before analysis of ΔΨm.
# To measure ΔΨm, the mitochondrial-specific probes rhodamine 123 (Rh123) and 5,5′,6,6′-tetrachloro-1,1′,3,3′-tetraethylbenzimidazolocarbocyanine iodide (JC-1) were used. Cells were incubated for 15 min with 2.5 μM Rh123 or for 10 min with […] JC-1 (Molecular Probes) in fresh culture medium, at 37° C. and 5% CO2. […] Data were acquired and analysed using Lysis II software (Becton Dickinson).
# JC-1 is a more reliable and sensitive fluorescent probe for assessing changes in ΔΨm. At low concentrations, JC-1 exists mainly in a monomeric form which is characterised by the emission of green fluorescence. […] These aggregates are characterized by the emission of red fluorescence. Thus, an increase in the red to green fluorescence ratio indicates an increase in ΔΨm. […] Thus, the ratio of red to green fluorescence (□) increased as the time of incubation with lisinopril progressed.
# [4] = 5 μg/kg/day, rats; cited from earlier work
# [5] = low dose, humans; cited from earlier work
# [6] = 2.5 mg; cited from earlier work
# [7] = rat hind limb; cited from earlier work
# renin gene expression = conditions: captopril administration; cited from earlier work
# [8] = Military recruits, 12 weeks training, randomised Losartan or placebo; type: in vivo, human; conditions: after 12 weeks training
# Text: Ninety military recruits were studied before and after military training of 12 weeks duration. These were randomised to receive the AT1-receptor antagonist Losartan or placebo.
# [9] = Cachectic CHF patients treated with Losartan: clinical status, body composition, strength, treadmill; type: in vivo, human
# Procedure: Patient 1 had cachexia due to chronic heart failure (CHF) (person, weight 50.0 kg, height 178 cm, previous weight loss 15.3 kg in 3 years=chronic weight loss). Patient 2 had CHF and a muscle myopathy suffering from idiopathic cachexia (person, weight 62 kg, height 180 cm, previous weight loss 11 kg in year=recent weight loss). Each was treated with Losartan (50 mg once daily). Clinical status and parameters of body composition, strength and treadmill exercise capacity were studies, at baseline and during follow-up. Both patients had evidence of CHF with impaired exercise capacity and impaired left ventricular function (LVEF<40%).
# Bioelectrical impedance analysis (patient 1 and 2) was performed in the erect position using a body fat analyser (TANITA TBF-305, Tanita Corporation, Illinois, USA). Lean and fat mass were automatically analysed based on equations supplied and programmed into the machine by the manufacturer. These equations are based upon a comparison with measurements in a health population.
# Dual energy X-ray absorptiometry (DEXA) (patient 1): Whole body DEXA-scans were performed using a Lunar model DPXIQ total body scanner (Lunar Radiation Company, Madison, Wisc., USA, Lunar system software version 4.3c). The subject was at each time point scanned rectilinearly from head to toe. A scan takes less than 20 min. The mean radiation dose per scan is reported to be about 0.75 μSv (53), about 1/50th of a normal chest X-ray. The DEXA method can be used to obtain from body density analyses values of fat tissue mass, lean tissue mass. The technical details of DEXA, performance and segment demarcation have been described (54,55). The error of lean tissue measurements is […] and of fat tissue measurements <5% (56).
# Treadmill exercise test (Patients 1 and 2): The patients underwent symptom limited treadmill exercise testing. A standard Bruce protocol with the addition of a “stage 0” consisting of 3 min at a speed of 1 mile per hour with a 5% gradient was used. The patients breathed through a one-way valve connected to a respiratory mass spectrometer (Amis 2000, Odense, Denmark) and minute ventilation, oxygen consumption and carbon dioxide production were calculated on line every 10 seconds using a standard inert gas dilution technique. Patients were encouraged to exercise to exhaustion. Exercise time and oxygen consumption at peak exercise adjusted for total body weight (peak V02 in ml/kg/min) were measured as an index of the exercise capacity.
# Assessment of quadriceps muscle strength (Patients 1 and 2): The subjects were seated in a rigid frame, with the legs hanging freely. An inelastic strap attached the ankle to a pressure transducer. The recording (Multitrace 2, §, Jersey, Channel Islands) from the pressure transducer was used to assess strength and to provide visual feedback to the subject. […] The best of three voluntary contractions on each leg, with a rest period of at least one minute in-between, was taken to represent the maximal voluntary quadriceps muscle strength of the right and left leg, respectively.
# [10] = human skeletal muscle; cited from earlier work
# [11] = 50 mg once daily, both patients
compound,measurement,setting,value
CCOC(=O)[C@H](CCc1ccccc1)N[C@@H](C)C(=O)N1CCC[C@H]1C(=O)O [enalapril],"risk of developing cardiac cachexia, RR (crude effect of treatment allocation)","[1]; 2.5 to 20 mg per day vs placebo, CHF patients",0.81
same,patients with weight loss of at least 7.5% with subsequently recorded weights equal to or higher than baseline,[1]; enalapril group,6 patients
same,effect on survival,"[1]; independent of age, gender, NYHA class, LVEF, p<0.01",significantly beneficial effect on survival; also recorded: reduced the frequency of the risk of death
same,reduction of the risk of developing cardiac cachexia,[1]; overall,19%
NCCCC[C@H](N[C@@H](CCc1ccccc1)C(=O)O)C(=O)N1CCC[C@H]1C(=O)O [lisinopril],increase in Rh123 fluorescence,rat cardiomyocytes [2],about 30%
same,green fluorescence (JC-1 monomer),rat cardiomyocytes [3]; various lengths of time,corresponding decrease
same,red fluorescence (JC-1 aggregates),rat cardiomyocytes [3]; various lengths of time,progressive increase
same,ratio of red to green fluorescence,rat cardiomyocytes [3]; with time of incubation,increased
CCOC(=O)[C@H](CCc1ccccc1)N[C@@H](C)C(=O)N1[C@H](C(=O)O)C[C@@H]2CCC[C@@H]21 [ramipril],effect on systolic blood pressure,[4],no effect on systolic blood pressure
same,effect on systemic blood pressure,[5],without any recordable effect on systemic blood pressure
same,frequency of first-dose fall in blood pressure,[6],same frequency as is seen with placebo
"angiotensin II (DRVYIHPF; Angiotensin-2; UniProt P01019 25-32, looked up) [ATII]",O2 usage and twitch tension,[7],increases
C[C@H](CS)C(=O)N1CCC[C@H]1C(=O)O [captopril],increase in liver renin gene expression,renin gene expression,3 fold
CCCCc1nc(Cl)c(CO)n1Cc1ccc(-c2ccccc2-c2nn[nH]n2)cc1 [Losartan],gain in VO2 max at anaerobic threshold,[8]; DD genotype,-1.8 ± 6.3 mL/min
same,gain in VO2 max at anaerobic threshold,[8]; II genotype,0.3 ± 6.3 mL/min
same,"exercise capacity (exercise time, peak VO2)",[9]; [11],improved
same,side-effects of treatment,[9]; [11],No side-effects of treatment were observed
same,quadriceps muscle strength,"[9]; 50 mg once daily, both patients, both legs",improved
same,improvement in NYHA symptom class,"[9]; 50 mg once daily, both patients, follow-up 126 and 83 days",1 NYHA symptom class
same,weight gain,"[9]; patient 1, 50 mg once daily, 126 days, lean and fat tissue gain",4.6 kg
same,weight course,"[9]; patient 2, 50 mg once daily, 83 days",stopping the process of weight loss
same,insulin sensitivity,[10],improves insulin sensitivity

# — patent US8604070B2, “Use of inhibitors of the renin-angiotensin system” (FinVector Vision Therapies, Ltd., priority 1997, dated 2013)
